Experiments:
[1] = compound: CO[C@@H]1[C@H](N(C)C(=O)c2ccccc2)C[C@H]2O[C@]1(C)n1c3ccccc3c3c4c(c5c6ccccc6n2c5c31)C(=O)NC4 [Midostaurin] + COc1cc2c(Oc3ccc(NC(=O)C4(C(=O)Nc5ccc(F)cc5)CC4)cc3F)ccnc2cc1OCCCN1CCOCC1 [Foretinib] (partner 0.25 µM); test: relative viability (nuclei count vs DMSO), 5 days (fraction); higher = more cells survive
Outline: (§1)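 After 5 days of treatment, lung cancer cells in 1536-well plates were fixed and stained in a single step (final 0.05% Triton X-100, 1% formaldehyde, 1 ug/ml Hoechst) and their nuclei counted on 4× images. Treatment had been applied by pin tool the day after seeding as one drug alone or as a fixed anchor-drug dose with five library-drug doses (not always all listed) in √10 steps. Relative viability is the nuclei count of treated wells divided by that of vehicle wells, and values are medians of duplicate plates.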

[2] = compound: COc1cc(-c2nn([C@H]3CC[C@H](N4CCN(C(C)=O)CC4)CC3)c3ncnc(N)c23)ccc1NC(=O)c1cc2ccccc2n1C + Cc1cc(Nc2cc(N3CCN(C)CC3)nc(Sc3ccc(NC(=O)C4CC4)cc3)n2)n[nH]1 [Tozasertib] (partner 0.1 µM); test: as above
Outline: as §1

Cell Line	relative viability ([1]; first compound 0.01 µM)	relative viability ([1]; first compound 0.03162 µM)	relative viability ([1]; first compound 0.1 µM)	relative viability ([1]; first compound 0.3162 µM)	relative viability ([2]; first compound 0.0128 µM)	relative viability ([2]; first compound 0.04048 µM)	relative viability ([2]; first compound 0.128 µM)	relative viability ([2]; first compound 1.28 µM)
NCI-H1975	0.925	1.01	0.952	0.647	0.868	0.896	0.528	0.159
CAL-12T	1.17	0.959	0.733	1.11	0.29	0.275	0.221	0.178
NCI-H1623	0.995	0.876	0.949	0.941	0.449	0.419	0.424	0.41
HCC-44					0.707	1.29	0.796	0.819
EKVX	0.824	0.76	0.702	0.78	0.398	0.379	0.332	0.19
NCI-H1651	0.882	0.819	0.764	0.683	0.616	0.769	0.635	0.37
NCI-H1944	0.893	0.899	0.711	0.853	0.265	0.257	0.24	0.196
NCI-H1703	0.351	0.316	0.292	0.325				
Calu-6	0.879	0.921	0.89	0.835				
EBC-1	0.104	0.103	0.112	0.102				
SW 1573	1.05	0.806	1.03	1.01	0.201	0.108	0.175	0.148
A-427	1.06	1.08	0.903	1.03	0.221		0.222	0.185
NCI-H2347	1.2	1.13	0.841	1.5	0.475		0.486	0.42
NCI-H1355	1.02	0.913	0.817	0.971	0.541	0.551	0.497	0.28
NCI-H358	0.821	0.784	0.706	0.662	0.107	0.104	0.103	0.0932
PC-3 [JPC-3]	1.05	0.942	1.02	0.959	0.845	0.904	0.802	0.896
NCI-H2228	0.922	0.85	1.08	0.905	0.273	0.242	0.22	0.157
HOP-62	1.14	1.04	1.16	1.2	0.382	0.41	0.346	0.368
HARA	0.904	0.887	0.91	0.891	0.11	0.0748	0.101	0.0842
NCI-H838	1.05	0.939	0.759	0.497	0.287	0.289	0.322	0.209
NCI-H1755	0.944	0.848	0.787	0.628	0.617	0.604	0.534	0.546
HCC-78	0.65	0.532	0.541	0.555	0.456	0.368	0.742	0.269
IA-LM	1.15	0.86	1.23	1.05				
NCI-H322M	1.04	0.923	1.07	1.14	0.509	0.472	0.445	0.341
NCI-H3122	0.926	0.94	0.718	0.976	0.396	0.342	0.343	0.454
COR-L23	1.03	0.954	0.9	0.892	0.246	0.217	0.147	0.133
NCI-H2087	1.15	0.942	1.21	0.775	0.221		0.216	0.194

Cell Line	relative viability ([1]; first compound 0.01 µM)	relative viability ([1]; first compound 0.03162 µM)	relative viability ([1]; first compound 0.1 µM)	relative viability ([1]; first compound 0.3162 µM)	relative viability ([2]; first compound 0.0128 µM)	relative viability ([2]; first compound 0.04048 µM)	relative viability ([2]; first compound 0.128 µM)	relative viability ([2]; first compound 1.28 µM)
LC-2-ad	0.919	0.897	0.914	1.04	0.379	0.542	0.405	0.371
NCI-H1915	1.1	0.993	1.04	1.09	0.443	0.44	0.384	0.317
NCI-H1793	0.674	0.644	0.533	0.369	0.367	0.343	0.228	0.126
NCI-H2023	0.856	0.984	0.686	0.631	0.381	0.309	0.179	0.199
COR-L 105	1.04	1.04	0.909	1.09	0.335	0.309	0.355	0.269
RERF-LC-KJ	0.915	0.866	0.939	0.936	0.51	0.522	0.401	0.424
LXF-289	0.967	0.941	0.897	0.988	0.219	0.217	0.17	0.0946
PC-14	0.984	0.924	0.909	0.899	0.562	0.688	0.559	0.636
NCI-H650	0.959	0.95	1.01	0.767	0.663	0.747	0.735	0.732
NCI-H1666	0.881	0.954	0.786	0.754	0.619	0.67	0.593	0.587
NCI-H2085	1.02	0.845	0.863	0.555	0.827	0.867	0.728	0.372
NCI-H1734	0.878	0.739	0.866	0.679	0.293	0.234	0.253	0.201
NCI-H2126	1.19	1.14	1.04	1.15	0.833	0.946	0.773	0.638
EMC-BAC-2	0.961	0.828	0.822	0.708	0.276	0.377	0.331	0.273
NCI-H1993	0.863	0.761	0.765	0.935	0.568	0.534	0.56	0.546
NCI-H520	0.68	0.715	0.661	0.688	0.378	0.432	0.412	0.31
NCI-H647	1.14	1.2	1.2	1.14	0.219	0.262	0.194	0.141
SK-LU-1	0.799	0.869	0.747	0.621	0.346	0.352	0.273	0.226
ChaGo-K-1	0.888	0.99	0.785	0.946	0.215	0.218	0.211	0.195
NCI-H2342	1.03	0.933	0.961	0.92	0.595	0.523	0.491	0.303
NCI-H1299	1.07	1.04	1.05	0.976				
NCI-H1650	1.16	1.11	0.911	1.19	0.36	0.374	0.351	0.2
NCI-H2009	1.22	1.09	0.88	1.16	0.743	0.734	0.681	0.606
LOU-NH91	0.976	0.903	1.01	1.01	0.664	0.598	0.699	0.671
NCI-H2405	1.05	0.985	1.01	0.96	0.741	0.601	0.656	0.391
SW 900	0.876	0.746	0.822	0.763	0.665	0.539	0.402	0.343
LCLC-97TM1	1	0.937	0.817	0.913	0.275	0.252	0.201	0.253

Cell Line	relative viability ([1]; first compound 0.01 µM)	relative viability ([1]; first compound 0.03162 µM)	relative viability ([1]; first compound 0.1 µM)	relative viability ([1]; first compound 0.3162 µM)	relative viability ([2]; first compound 0.0128 µM)	relative viability ([2]; first compound 0.04048 µM)	relative viability ([2]; first compound 0.128 µM)	relative viability ([2]; first compound 1.28 µM)
NCI-H596	0.816	0.969	0.723	0.896	0.972	1.17	0.872	0.541
NCI-H727	1.11	0.932	0.829	0.846	0.65		0.581	0.477
H3255	0.894	0.793	0.833	0.959	0.829	0.591	0.571	0.581
SK-MES-1	0.927	0.925	0.963	0.781	0.906	1.01	0.827	0.936
NCI-H1437	1.26	1.09	1.22	1.22	0.393	0.437	0.387	0.277
NCI-H1648					0.381	0.514	0.469	0.3
LU99A	0.708	0.854	0.695	0.783	0.281	0.28	0.274	0.252
NCI-H522					0.614	0.59	0.566	0.445
HCC-827	0.98	1.04	1.01	1.05	0.417	0.416	0.392	0.374
LK-2	1.19	1.36	0.955	1.13	0.195	0.155	0.184	0.165
HCC-366	0.932	0.957	0.81	0.75	0.114	0.0717	0.0637	0.0555
BEN	0.719	0.803	0.966	0.667	0.56	0.569	0.518	0.432
NCI-H23	0.685	1.23	0.648	0.531	0.359	0.444	0.309	0.266
NCI-H1395	1.12	1.07	0.992	1.1	0.77	0.81	0.714	0.561
A549	0.871	0.781	0.939	0.99				
201T	1.15	0.988	1.14	1.17	1	0.949	0.854	0.523
NCI-H2170	1.05	0.951	0.477	0.735	0.805	0.738	0.688	0.639
NCI-H460	1.02	0.932	1	0.95	0.47	0.113	0.278	0.0922
NCI-H661	0.903	0.847	1.02	1.04	0.362	0.381	0.346	0.34
HCC-15	1.08	0.856	1.04	1.05	0.332	0.473	0.331	0.247
NCI-H1563	0.985	0.976	0.847	0.785				
ABC-1	1.03	1.14	0.828	1.11	0.151	0.205	0.176	0.154
LCLC-103H	0.729	0.661	0.656	0.791	0.438	0.453	0.431	0.423
NCI-H441	0.808	0.848	0.858	0.693	0.743	0.734	0.565	0.578
EPLC-272H	0.822		0.653	0.606	0.38		0.235	0.19

From the supplement of paper PMC10307832
